This note sets out measurements from the supplement of paper PMC10307832.

Assay in all cases: relative viability (nuclei count vs DMSO), 5 days (fraction); higher = more cells survive
Compound in the test “QS11 + Dasatinib”: C1CC2=C(C1)C=C(C=C2)OC3=NC(=C4C(=N3)N(C=N4)CC5=CC=C(C=C5)C6=CC=CC=C6)N[C@@H](CC7=CC=CC=C7)CO [QS11] + Cc1nc(Nc2ncc(C(=O)Nc3c(C)cccc3Cl)s2)cc(N2CCN(CCO)CC2)n1 [Dasatinib] (partner 0.075 µM)
The essentials: (§1)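 One day after seeding in 1536-well plates, lung cancer cell lines were dosed by pin tool. Dosing was either single-drug or a fixed anchor-drug dose plus five library-drug doses (not always all listed) in √10 steps. After 5 days, nuclei were stained in one fix-and-stain step and counted on 4× images, and relative viability is the nuclei count of treated wells over that of vehicle wells, given as the median of duplicate plates.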

Compound in the test “AZ628 + Palbociclib”: CC1=C(C=C(C=C1)NC(=O)C2=CC(=CC=C2)C(C)(C)C#N)NC3=CC4=C(C=C3)N=CN(C4=O)C [AZ628] + CC(=O)c1c(C)c2cnc(Nc3ccc(N4CCNCC4)cn3)nc2n(C2CCCC2)c1=O [Palbociclib] (partner 0.5 µM)
In outline:
as §1

Compound in the test “AZ628 + Navitoclax”: CC1=C(C=C(C=C1)NC(=O)C2=CC(=CC=C2)C(C)(C)C#N)NC3=CC4=C(C=C3)N=CN(C4=O)C [AZ628] + CC1(C)CCC(c2ccc(Cl)cc2)=C(CN2CCN(c3ccc(C(=O)NS(=O)(=O)c4ccc(N[C@H](CCN5CCOCC5)CSc5ccccc5)c(S(=O)(=O)C(F)(F)F)c4)cc3)CC2)C1 [Navitoclax] (partner 0.5 µM)
In outline:
as §1

Compound in the test “AZ628 + Pemetrexed”: CC1=C(C=C(C=C1)NC(=O)C2=CC(=CC=C2)C(C)(C)C#N)NC3=CC4=C(C=C3)N=CN(C4=O)C [AZ628] + Nc1nc2[nH]cc(CCc3ccc(C(=O)N[C@@H](CCC(=O)O)C(=O)O)cc3)c2c(=O)[nH]1 [Pemetrexed] (partner 0.2 µM)
In outline:
as §1

Regarding LXF-289, the relative viability with QS11 + Dasatinib (first compound 0.08 µM) is 0.228; in the test with QS11 + Dasatinib (first compound 0.253 µM) it was 0.263; in the test with QS11 + Dasatinib (first compound 0.8 µM), 0.241; with QS11 + Dasatinib (first compound 2.53 µM), 0.291; in the test with QS11 + Dasatinib (first compound 8 µM), 0.191; with AZ628 + Palbociclib (first compound 0.08 µM), 0.617. Moreover, the relative viability worked out at 0.658 in the test with AZ628 + Palbociclib (first compound 0.253 µM); 0.592 in the test with AZ628 + Palbociclib (first compound 0.8 µM); 0.621 with AZ628 + Palbociclib (first compound 2.53 µM); 0.44 with AZ628 + Palbociclib (first compound 8 µM); 0.941 with AZ628 + Navitoclax (first compound 0.08 µM); 0.875 in the test with AZ628 + Navitoclax (first compound 0.253 µM). Also, the relative viability in the test with AZ628 + Navitoclax (first compound 0.8 µM) is 0.87; in the test with AZ628 + Navitoclax (first compound 2.53 µM), 0.942; with AZ628 + Navitoclax (first compound 8 µM) it was 0.568; with AZ628 + Pemetrexed (first compound 0.08 µM), 0.939; in the test with AZ628 + Pemetrexed (first compound 0.253 µM) it was 0.722; with AZ628 + Pemetrexed (first compound 0.8 µM), 0.893. For the same cell line, the relative viability worked out at 0.866 with AZ628 + Pemetrexed (first compound 2.53 µM) and 0.678 in the test with AZ628 + Pemetrexed (first compound 8 µM).
Turning to NCI-H23, the relative viability was determined as 0.809 with QS11 + Dasatinib (first compound 0.08 µM); 0.673 with QS11 + Dasatinib (first compound 0.253 µM); 0.738 with QS11 + Dasatinib (first compound 0.8 µM); 0.654 with QS11 + Dasatinib (first compound 2.53 µM); 0.712 in the test with QS11 + Dasatinib (first compound 8 µM); 0.476 with AZ628 + Palbociclib (first compound 0.08 µM). Also, the relative viability with AZ628 + Palbociclib (first compound 0.253 µM) was 0.551; in the test with AZ628 + Palbociclib (first compound 0.8 µM), 0.347; with AZ628 + Palbociclib (first compound 2.53 µM), 0.23; in the test with AZ628 + Palbociclib (first compound 8 µM), 0.265; in the test with AZ628 + Navitoclax (first compound 0.08 µM), 0.878; with AZ628 + Navitoclax (first compound 0.253 µM), 0.868. Further, the relative viability in the test with AZ628 + Navitoclax (first compound 0.8 µM) was found to be 0.61; in the test with AZ628 + Navitoclax (first compound 2.53 µM), 0.783; with AZ628 + Navitoclax (first compound 8 µM), 0.559; in the test with AZ628 + Pemetrexed (first compound 0.08 µM), 0.616; with AZ628 + Pemetrexed (first compound 0.253 µM), 0.464; in the test with AZ628 + Pemetrexed (first compound 0.8 µM) it was 0.419. Further, the relative viability with AZ628 + Pemetrexed (first compound 2.53 µM) was found to be 0.45; with AZ628 + Pemetrexed (first compound 8 µM), 0.396.
Take NCI-H322M: the relative viability came to 0.264 with QS11 + Dasatinib (first compound 0.08 µM); 0.261 with QS11 + Dasatinib (first compound 0.253 µM); 0.27 with QS11 + Dasatinib (first compound 0.8 µM); 0.292 with QS11 + Dasatinib (first compound 2.53 µM); 0.318 in the test with QS11 + Dasatinib (first compound 8 µM); 0.513 in the test with AZ628 + Palbociclib (first compound 0.08 µM). For the same cell line, the relative viability with AZ628 + Palbociclib (first compound 0.253 µM) was determined as 0.519; with AZ628 + Palbociclib (first compound 0.8 µM) it was 0.466; with AZ628 + Palbociclib (first compound 2.53 µM), 0.505; with AZ628 + Palbociclib (first compound 8 µM), 0.449; in the test with AZ628 + Navitoclax (first compound 0.08 µM) it was 1.34; in the test with AZ628 + Navitoclax (first compound 0.253 µM), 1.14. The relative viability came out at 1.19 with AZ628 + Navitoclax (first compound 0.8 µM); 1.24 with AZ628 + Navitoclax (first compound 2.53 µM); 0.914 with AZ628 + Navitoclax (first compound 8 µM); 0.726 with AZ628 + Pemetrexed (first compound 0.08 µM); 0.664 in the test with AZ628 + Pemetrexed (first compound 0.253 µM); 0.604 with AZ628 + Pemetrexed (first compound 0.8 µM). In addition, the results for the relative viability with AZ628 + Pemetrexed (first compound 2.53 µM) and in the test with AZ628 + Pemetrexed (first compound 8 µM) were 0.642 and 0.558, respectively.
Turning to NCI-H441, the relative viability with QS11 + Dasatinib (first compound 0.08 µM) is 0.802; with QS11 + Dasatinib (first compound 0.253 µM), 0.689; with QS11 + Dasatinib (first compound 0.8 µM), 0.496; with QS11 + Dasatinib (first compound 2.53 µM) it was 0.786; with QS11 + Dasatinib (first compound 8 µM), 0.827; in the test with AZ628 + Palbociclib (first compound 0.08 µM) it was 0.184. In addition, the relative viability in the test with AZ628 + Palbociclib (first compound 0.253 µM) stood at 0.18; with AZ628 + Palbociclib (first compound 0.8 µM), 0.147; in the test with AZ628 + Palbociclib (first compound 2.53 µM), 0.145; with AZ628 + Palbociclib (first compound 8 µM), 0.151; with AZ628 + Navitoclax (first compound 0.08 µM) it was 0.565; with AZ628 + Navitoclax (first compound 0.253 µM), 0.508. In addition, the relative viability in the test with AZ628 + Navitoclax (first compound 0.8 µM) came to 0.765; with AZ628 + Navitoclax (first compound 2.53 µM), 0.902; with AZ628 + Navitoclax (first compound 8 µM), 0.633; with AZ628 + Pemetrexed (first compound 0.08 µM), 0.279; with AZ628 + Pemetrexed (first compound 0.253 µM) it was 0.252; with AZ628 + Pemetrexed (first compound 0.8 µM), 0.235. Also, the relative viability turned out to be 0.263 with AZ628 + Pemetrexed (first compound 2.53 µM) and 0.26 with AZ628 + Pemetrexed (first compound 8 µM).
For the cell line NCI-H460, the relative viability with QS11 + Dasatinib (first compound 0.08 µM) stood at 0.523; with QS11 + Dasatinib (first compound 0.253 µM), 0.462; in the test with QS11 + Dasatinib (first compound 0.8 µM), 0.329; with QS11 + Dasatinib (first compound 2.53 µM) it was 0.359; in the test with QS11 + Dasatinib (first compound 8 µM), 0.291; with AZ628 + Palbociclib (first compound 0.08 µM), 0.148. The relative viability with AZ628 + Palbociclib (first compound 0.253 µM) is 0.168; with AZ628 + Palbociclib (first compound 0.8 µM), 0.147; in the test with AZ628 + Palbociclib (first compound 2.53 µM) it was 0.17; with AZ628 + Palbociclib (first compound 8 µM), 0.123; with AZ628 + Navitoclax (first compound 0.08 µM) it was 1.2; with AZ628 + Navitoclax (first compound 0.253 µM), 1.18. For the same cell line, the relative viability worked out at 1.09 with AZ628 + Navitoclax (first compound 0.8 µM); 1.09 in the test with AZ628 + Navitoclax (first compound 2.53 µM); 0.561 with AZ628 + Navitoclax (first compound 8 µM); 0.0707 with AZ628 + Pemetrexed (first compound 0.08 µM); 0.055 in the test with AZ628 + Pemetrexed (first compound 0.253 µM); 0.0564 with AZ628 + Pemetrexed (first compound 0.8 µM). Moreover, the relative viability turned out to be 0.0595 in the test with AZ628 + Pemetrexed (first compound 2.53 µM) and 0.0641 with AZ628 + Pemetrexed (first compound 8 µM).
On to NCI-H520, for which the relative viability is 0.186 in the test with QS11 + Dasatinib (first compound 0.08 µM); 0.254 with QS11 + Dasatinib (first compound 0.253 µM); 0.191 in the test with QS11 + Dasatinib (first compound 0.8 µM); 0.208 with QS11 + Dasatinib (first compound 2.53 µM); 0.167 with QS11 + Dasatinib (first compound 8 µM); 0.21 in the test with AZ628 + Palbociclib (first compound 0.08 µM). In addition, the relative viability came out at 0.224 with AZ628 + Palbociclib (first compound 0.253 µM); 0.197 in the test with AZ628 + Palbociclib (first compound 0.8 µM); 0.254 in the test with AZ628 + Palbociclib (first compound 2.53 µM); 0.199 in the test with AZ628 + Palbociclib (first compound 8 µM); 1.18 in the test with AZ628 + Navitoclax (first compound 0.08 µM); 0.842 in the test with AZ628 + Navitoclax (first compound 0.253 µM). Moreover, the relative viability worked out at 1.05 with AZ628 + Navitoclax (first compound 0.8 µM); 0.968 with AZ628 + Navitoclax (first compound 2.53 µM); 0.772 with AZ628 + Navitoclax (first compound 8 µM); 0.669 in the test with AZ628 + Pemetrexed (first compound 0.08 µM); 0.596 with AZ628 + Pemetrexed (first compound 0.253 µM); 0.67 with AZ628 + Pemetrexed (first compound 0.8 µM). Moreover, the relative viability with AZ628 + Pemetrexed (first compound 2.53 µM) stood at 0.707; with AZ628 + Pemetrexed (first compound 8 µM), 0.286.
Take NCI-H647: the relative viability in the test with QS11 + Dasatinib (first compound 0.08 µM) turned out to be 0.164; in the test with QS11 + Dasatinib (first compound 0.253 µM) it was 0.219; in the test with QS11 + Dasatinib (first compound 0.8 µM), 0.216; in the test with QS11 + Dasatinib (first compound 2.53 µM), 0.184; with QS11 + Dasatinib (first compound 8 µM), 0.205; with AZ628 + Palbociclib (first compound 0.08 µM), 0.493. Also, the relative viability is 0.43 with AZ628 + Palbociclib (first compound 0.253 µM); 0.322 with AZ628 + Palbociclib (first compound 0.8 µM); 0.357 with AZ628 + Palbociclib (first compound 2.53 µM); 0.289 with AZ628 + Palbociclib (first compound 8 µM); 1.29 in the test with AZ628 + Navitoclax (first compound 0.08 µM); 1.1 with AZ628 + Navitoclax (first compound 0.253 µM). The relative viability turned out to be 1.21 with AZ628 + Navitoclax (first compound 0.8 µM); 1.19 in the test with AZ628 + Navitoclax (first compound 2.53 µM); 1.02 in the test with AZ628 + Navitoclax (first compound 8 µM); 0.201 with AZ628 + Pemetrexed (first compound 0.08 µM); 0.17 in the test with AZ628 + Pemetrexed (first compound 0.253 µM); 0.179 in the test with AZ628 + Pemetrexed (first compound 0.8 µM). Also, the figures for the relative viability with AZ628 + Pemetrexed (first compound 2.53 µM) and in the test with AZ628 + Pemetrexed (first compound 8 µM) were 0.161 and 0.151, respectively.
